Legend:
[1] = test system: Rattus norvegicus; test: Inhibitory activity against Bezold-jarisch functional assay, inducing a transient bradycardia upon intravenous administration of 5-hydroxytryptamine-(10 ug/kg) in anesthetized rats.; conditions: read-out: ID50 (the source's name)
[2] = test system: Canis familiaris; test: Compound was evaluated for protection against cisplatin-induced emesis by measuring number of retches in dogs administered perorally at 1.0 mg/kg.; assay type: functional, Canis lupus familiaris; conditions: route oral
[3] = Compound was evaluated for protection against cisplatin-induced emesis by measuring number of retches in ferrets administered intravenously at 0.01 mg/kg.; assay type: functional, Mustela putorius furo; conditions: route intravenous
[4] = test system: Canis familiaris; test: Compound was evaluated for protection against cisplatin-induced emesis by measuring number of retches in dogs administered perorally at 0.1 mg/kg.; assay type: functional, Canis lupus familiaris; conditions: route oral
[5] = test system: Canis familiaris; test: Compound was evaluated for protection against cisplatin-induced emesis by measuring number of emetic episodes in dogs administered intravenously at 0.1 mg/kg.; assay type: functional, Canis lupus familiaris; conditions: route intravenous
[6] = Compound was evaluated for number of emetic episodes in ferrets administered intravenously at 0.01 mg/kg.; assay type: functional, Mustela putorius furo; conditions: route intravenous
[7] = test system: Canis familiaris; test: Compound was evaluated for protection against cisplatin-induced emesis by measuring number of emetic episodes in dogs administered perorally at 0.1 mg/kg.; assay type: functional, Canis lupus familiaris; conditions: route oral
[8] = test system: Canis familiaris; test: Compound was evaluated for protection against cisplatin-induced emesis by measuring number of emetic episodes in dogs administered intravenously at 0.3 mg/kg.; assay type: functional, Canis lupus familiaris; conditions: route intravenous
[9] = test system: Canis familiaris; test: Compound was evaluated for protection against cisplatin-induced emesis by measuring number of emetic episodes in dogs administered perorally at 0.3 mg/kg.; assay type: functional, Canis lupus familiaris; conditions: route oral
[10] = test system: Canis familiaris; test: Compound was evaluated for protection against cisplatin-induced emesis by measuring number of retches in dogs administered intravenously at 0.03 mg/kg.; assay type: functional, Canis lupus familiaris; conditions: route intravenous
[11] = Compound was evaluated for protection against cisplatin-induced emesis by measuring number of emetic episodes in ferrets administered intravenously at 0.3 mg/kg.; assay type: functional, Mustela putorius furo; conditions: route intravenous
[12] = Compound was evaluated for protection against cisplatin-induced emesis by measuring number of emetic episodes in ferrets administered perorally at 0.1 mg/kg.; assay type: functional, Mustela putorius furo; conditions: route oral
[13] = Compound was evaluated for protection against cisplatin-induced emesis by measuring number of emetic episodes in ferrets administered intravenously at 0.03 mg/kg.; assay type: functional, Mustela putorius furo; conditions: route intravenous
[14] = Compound was evaluated for protection against cisplatin-induced emesis by measuring number of retches in ferrets administered intravenously at 0.1 mg/kg.; assay type: functional, Mustela putorius furo; conditions: route intravenous
[15] = test system: Canis familiaris; test: Compound was evaluated for protection against cisplatin-induced emesis by measuring number of emetic episodes in dogs administered intravenously at 0.03 mg/kg.; assay type: functional, Canis lupus familiaris; conditions: route intravenous
[16] = Compound was evaluated for protection against cisplatin-induced emesis by measuring number of retches in ferrets administered perorally at 0.1 mg/kg.; assay type: functional, Mustela putorius furo; conditions: route oral
[17] = test system: Canis familiaris; test: Compound was evaluated for protection against cisplatin-induced emesis by measuring number of retches in dogs administered intravenously at 0.1 mg/kg.; assay type: functional, Canis lupus familiaris; conditions: route intravenous
[18] = Compound was evaluated for protection against cisplatin-induced emesis by measuring number of retches in ferrets administered intravenously at 0.3 mg/kg.; assay type: functional, Mustela putorius furo; conditions: route intravenous
[19] = test system: Canis familiaris; test: Compound was evaluated for protection against cisplatin-induced emesis by measuring number of emetic episodes in dogs administered perorally at 1.0 mg/kg.; assay type: functional, Canis lupus familiaris; conditions: route oral
[20] = Compound was evaluated for protection against cisplatin-induced emesis by measuring number of emetic episodes in ferrets administered perorally at 0.3 mg/kg.; assay type: functional, Mustela putorius furo; conditions: route oral
[21] = Compound was evaluated for protection against cisplatin-induced emesis by measuring number of retches in ferrets administered intravenously at 0.03 mg/kg.; assay type: functional, Mustela putorius furo; conditions: route intravenous
[22] = Compound was evaluated for protection against cisplatin-induced emesis by measuring number of emetic episodes in ferrets administered intravenously at 0.1 mg/kg.; assay type: functional, Mustela putorius furo; conditions: route intravenous
[23] = Compound was evaluated for protection against cisplatin-induced emesis by measuring number of retches in ferrets administered perorally at 1.0 mg/kg.; assay type: functional, Mustela putorius furo; conditions: route oral
[24] = test system: Canis familiaris; test: Compound was evaluated for protection against cisplatin-induced emesis by measuring number of retches in dogs administered intravenously at 0.3 mg/kg.; assay type: functional, Canis lupus familiaris; conditions: route intravenous
[25] = Compound was evaluated for protection against cisplatin-induced emesis by measuring number of retches in ferrets administered perorally at 0.3 mg/kg.; assay type: functional, Mustela putorius furo; conditions: route oral
[26] = Compound was evaluated for protection against cisplatin-induced emesis by measuring number of emetic episodes in ferrets administered perorally at 1.0 mg/kg.; assay type: functional, Mustela putorius furo; conditions: route oral
[27] = test system: Canis familiaris; test: Compound was evaluated for number of retches in dogs administered perorally at 0.3 mg/kg.; assay type: functional, Canis lupus familiaris; conditions: route oral

Cc1[nH]cnc1Cn1ccc2c(N)cccc2c1=O
ED50 [1]: > 100 µg/kg

Cc1[nH]cnc1Cn1cccc(-c2cccn2C)c1=O
ED50 [1]: 43.3 µg/kg

COc1cc2ccccc2c2c(=O)n(Cc3[nH]cnc3C)ccc12
ED50 [1]: 2.53 µg/kg

Cc1[nH]cnc1Cn1ccc2cc(N)ccc2c1=O
ED50 [1]: 37.9 µg/kg

Cc1[nH]cnc1Cn1ncc2ccccc2c1=O
ED50 [1]: > 100 µg/kg

Cc1nc[nH]c1Cn1ccc2cc(C)c3ccccc3c2c1=O
ED50 [1]: 0.82 µg/kg

Cc1nc[nH]c1Cn1ccc2c(=O)n(C)c3ccccc3c2c1=O
ED50 [1]: 0.23 µg/kg

Cc1[nH]cnc1Cn1ccc2c(c1=O)-c1ccccc1CC2
ED50 [1]: 0.46 µg/kg

Cc1ccc(-c2cccn(Cc3[nH]cnc3C)c2=O)o1
ED50 [1]: 9.18 µg/kg

Cc1[nH]cnc1Cn1cccc(-c2cccc(F)c2)c1=O
ED50 [1]: 29.9 µg/kg

Cc1[nH]cnc1Cn1ccc2ccc3cccnc3c2c1=O
ED50 [1]: 24.3 µg/kg

Cc1[nH]cnc1Cn1cccc(-c2ccoc2)c1=O
ED50 [1]: 8.65 µg/kg

Cc1[nH]cnc1Cn1cccc(-c2ccccc2O)c1=O
ED50 [1]: 40 µg/kg

Cc1[nH]cnc1Cn1ccc2ccc3c(ccn3C)c2c1=O
ED50 [1]: 1.64 µg/kg

Cc1[nH]cnc1Cn1cccc(-c2ccccn2)c1=O
ED50 [1]: 10.4 µg/kg

Cc1[nH]cnc1Cn1cccc(-c2ccsc2)c1=O
ED50 [1]: 3.1 µg/kg

Cc1ccc(-c2cccn(Cc3[nH]cnc3C)c2=O)s1
ED50 [1]: 3.62 µg/kg

Cc1nc[nH]c1Cn1ccc2c(C)cc3ccccc3c2c1=O
ED50 [1]: 1.09 µg/kg

Cc1[nH]cnc1Cn1ccc2cnc3ccccc3c2c1=O
ED50 [1]: 0.28 µg/kg

Cc1[nH]cnc1Cn1ccc2ccc3ccccc3c2c1=O
No. of retches [2]: 26.3 | No. of retches [3]: 144.5 | No. of retches [4]: 133.2 | No. of emetic episodes [5]: 4.4 | No. of emetic episodes [6]: 10.8 | No. of emetic episodes [7]: 10.8 | No. of emetic episodes [8]: 3.4 | No. of emetic episodes [9]: 4 | No. of retches [10]: 143.8 | No. of emetic episodes [11]: 0 | No. of emetic episodes [12]: 4.8 | No. of emetic episodes [13]: 5 | No. of retches [14]: 65 | No. of emetic episodes [15]: 10.2 | No. of retches [16]: 89.3 | No. of retches [17]: 53.8 | No. of retches [18]: 11.8 | No. of emetic episodes [19]: 1.8 | No. of emetic episodes [20]: 1.3 | No. of retches [21]: 79 | No. of emetic episodes [22]: 2 | No. of retches [23]: 1 | No. of retches [24]: 42.4 | No. of retches [25]: 31.5 | ED50 [1]: 0.3 µg/kg | No. of emetic episodes [26]: 0 | No. of retches [27]: 27.8

Cc1[nH]cnc1Cn1ccc2ncc3ccccc3c2c1=O
ED50 [1]: 0.16 µg/kg

Cc1[nH]cnc1Cn1ccc2c(Cl)cc(Cl)cc2c1=O
ED50 [1]: 34.6 µg/kg

Cc1[nH]cnc1Cn1ccc2ccc3ncccc3c2c1=O
ED50 [1]: 2.86 µg/kg

Cc1[nH]cnc1Cn1ccc2cc(Br)c3ccccc3c2c1=O
ED50 [1]: 6.21 µg/kg

COc1ccc(-c2cccn(Cc3[nH]cnc3C)c2=O)cc1
ED50 [1]: > 100 µg/kg

Cc1[nH]cnc1Cn1ccc2cc3c(cc2c1=O)OCCO3
ED50 [1]: > 100 µg/kg

Cc1[nH]cnc1Cn1ccc2c(CO)cc3ccccc3c2c1=O
ED50 [1]: 0.68 µg/kg

Source: ChEMBL document CHEMBL1125546, “Novel 5-HT3 antagonists. Isoquinolinones and 3-aryl-2-pyridones” (J Med Chem, 1992)
